PubChem BioAssay (NCI)
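Briefly, cells in 96-well plates were exposed to five compound concentrations for 48 h, and endpoints were estimated by linear interpolation. GI50 is the concentration that inhibits growth by half. TGI is the concentration that stops growth completely.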

Tests used:
Experiment in all cases: inhibition of tumour cell growth, NCI panel, 48 h
ACHN renal = tested on: ACHN renal
OVCAR-5 ovarian = tested on: OVCAR-5 ovarian
HCT-15 colon = tested on: HCT-15 colon
SF-539 CNS = tested on: SF-539 CNS
LOX IMVI melanoma = tested on: LOX IMVI melanoma
HT29 colon = tested on: HT29 colon
CAKI-1 renal = tested on: CAKI-1 renal
SF-268 CNS = tested on: SF-268 CNS
U251 CNS = tested on: U251 CNS

SMILES | TGI (ACHN renal) [µM] | TGI (OVCAR-5 ovarian) [µM] | TGI (HCT-15 colon) [µM] | TGI (SF-539 CNS) [µM] | TGI (LOX IMVI melanoma) [µM] | TGI (HT29 colon) [µM] | TGI (CAKI-1 renal) [µM] | TGI (SF-268 CNS) [µM] | TGI (U251 CNS) [µM] | GI50 (ACHN renal) [µM] | GI50 (OVCAR-5 ovarian) [µM] | GI50 (HCT-15 colon) [µM] | GI50 (SF-539 CNS) [µM] | GI50 (LOX IMVI melanoma) [µM] | GI50 (HT29 colon) [µM] | GI50 (CAKI-1 renal) [µM] | GI50 (SF-268 CNS) [µM] | GI50 (U251 CNS) [µM]
CCC(/C=C/c1ccccc1)=N\Nc1ccc(Cl)c(Cl)c1 | 76.9 | > 100 | > 100 | 66.1 | > 100 | > 100 | > 100 | > 100 | > 100 | – | – | – | – | – | – | – | – | –
CC#CC1C(OC(=O)c2ccccc2)CCCC1(CI)N=[N+]=[N-] (centres undefined) | > 100 | > 100 | > 100 | > 100 | – | > 100 | > 100 | > 100 | > 100 | – | – | – | – | – | – | – | – | –
C=CC1C(OC2OC(CO)C(O)C(O)C2O)OC=C(C(=O)OC)C1CC=O (centres undefined) | > 100 | – | > 100 | > 100 | > 100 | – | – | > 100 | > 100 | – | – | – | – | – | – | – | – | –
N#Cc1cc([N+](=O)[O-])ccc1NC(=O)/C(=N/N)C(C(=O)c1ccc(Cl)c(Cl)c1)C1OC(=O)c2ccccc21 (centres undefined) | > 100 | > 100 | > 100 | > 100 | > 100 | > 100 | > 100 | > 100 | > 100 | – | – | – | – | – | – | – | – | –
CCCOC(=O)CCn1c(SC)nc2[nH]cc(-c3ccccc3)c2c1=O | 77.2 | > 100 | > 100 | > 100 | 30.9 | 61.6 | 54 | > 100 | 87.4 | 22.2 | > 100 | 37.7 | 24.9 | 10.9 | 15.5 | 19.6 | 14.5 | 12.8
CC(=O)Nc1ccc(/C=C/C(=O)c2sc(-c3nc(C)c(C(=O)/C=C/c4ccc(NC(C)=O)cc4)s3)nc2C)cc1 | > 100 | > 100 | > 100 | > 100 | > 100 | > 100 | > 100 | – | > 100 | – | – | – | – | – | – | – | – | –
COC(=O)C1=C(O)c2cc3c(cc2[C@H](c2cc(OC)c(OC)c(OC)c2)C1C(=O)OC)OCO3 (some centres undefined) | 58.1 | > 100 | > 100 | > 100 | > 100 | > 100 | 89.6 | > 100 | > 100 | – | – | – | – | – | – | – | – | –
Cc1c(Cl)cccc1NC1=C(Cl)C(=O)N(Cc2ccccc2)C1=O | 8.92 | 31.5 | 18 | – | 47.8 | – | 5.06 | 27 | 20.1 | 1.29 | 17.6 | 4.37 | – | 4.83 | – | 1.11 | 6.88 | 6.24
CCOC(=O)C1=C(Nc2cccc3ccccc23)OC/C1=N\NC(=O)c1ccccc1O | > 100 | > 100 | > 100 | 46.8 | > 72.5 | > 88.5 | 80.2 | > 100 | > 100 | – | – | – | – | – | – | – | – | –
CCCOc1nc(SCCC)nc2c1cnn2-c1ccccc1 | > 100 | > 100 | > 100 | > 100 | > 100 | – | > 100 | > 100 | > 100 | > 100 | > 100 | > 100 | > 100 | > 100 | – | 68.2 | > 100 | > 100
COC(=O)C1=C(C(=O)OC)SC(=C(N=Nc2ccccc2)c2ccccc2)S1 | > 100 | > 100 | > 100 | > 100 | > 100 | > 100 | > 100 | > 100 | > 100 | – | – | – | – | – | – | – | – | –
O=C(COc1cccc(/C=C2\COc3ccc(Cl)cc3C2=O)c1)c1ccc(Cl)cc1 | 29.4 | 25.8 | 24.7 | 28.7 | 13.2 | 20.2 | 24.5 | 26.9 | 26.7 | 15.4 | 13 | 12.2 | 15.4 | 3.2 | 7.69 | 12.1 | 13.9 | 13.8
O=c1[nH]c(-c2ccc(-c3nc4cc([N+](=O)[O-])ccc4c(=O)[nH]3)cc2)nc2cc([N+](=O)[O-])ccc12 | > 100 | > 100 | > 100 | > 100 | > 100 | > 100 | > 100 | – | > 100 | – | – | – | – | – | – | – | – | –
O=C1NC2C=CN(Cc3ccccc3)C=C2C(=O)N2CCCC12 (centres undefined) | > 100 | > 100 | > 100 | > 100 | – | > 100 | > 100 | > 100 | > 100 | – | – | – | – | – | – | – | – | –
